SMILES strings stand for the structures. Changes are numbered by the printed parent chain. Like-named read-outs stand apart in the source and are kept apart here. Bounds are passed on as bounds.

We go through 7 compounds from patent US12398132B2, “Derivatives of 4-(imidazo[1,2-a]pyridin-3-yl)-n-(pyridinyl)pyrimidin-2-amine as therapeutic agents” (AUCENTRA THERAPEUTICS PTY LTD, priority 2019, dated 2025).

Test [1] deals with CDK2E1 (Homo sapiens, UniProt P24941). Particulars: 1 µM.
Test [2] addresses T1, FLT3(ITD) (Homo sapiens, UniProt P36888).
T1 sequence (P36888 1-993): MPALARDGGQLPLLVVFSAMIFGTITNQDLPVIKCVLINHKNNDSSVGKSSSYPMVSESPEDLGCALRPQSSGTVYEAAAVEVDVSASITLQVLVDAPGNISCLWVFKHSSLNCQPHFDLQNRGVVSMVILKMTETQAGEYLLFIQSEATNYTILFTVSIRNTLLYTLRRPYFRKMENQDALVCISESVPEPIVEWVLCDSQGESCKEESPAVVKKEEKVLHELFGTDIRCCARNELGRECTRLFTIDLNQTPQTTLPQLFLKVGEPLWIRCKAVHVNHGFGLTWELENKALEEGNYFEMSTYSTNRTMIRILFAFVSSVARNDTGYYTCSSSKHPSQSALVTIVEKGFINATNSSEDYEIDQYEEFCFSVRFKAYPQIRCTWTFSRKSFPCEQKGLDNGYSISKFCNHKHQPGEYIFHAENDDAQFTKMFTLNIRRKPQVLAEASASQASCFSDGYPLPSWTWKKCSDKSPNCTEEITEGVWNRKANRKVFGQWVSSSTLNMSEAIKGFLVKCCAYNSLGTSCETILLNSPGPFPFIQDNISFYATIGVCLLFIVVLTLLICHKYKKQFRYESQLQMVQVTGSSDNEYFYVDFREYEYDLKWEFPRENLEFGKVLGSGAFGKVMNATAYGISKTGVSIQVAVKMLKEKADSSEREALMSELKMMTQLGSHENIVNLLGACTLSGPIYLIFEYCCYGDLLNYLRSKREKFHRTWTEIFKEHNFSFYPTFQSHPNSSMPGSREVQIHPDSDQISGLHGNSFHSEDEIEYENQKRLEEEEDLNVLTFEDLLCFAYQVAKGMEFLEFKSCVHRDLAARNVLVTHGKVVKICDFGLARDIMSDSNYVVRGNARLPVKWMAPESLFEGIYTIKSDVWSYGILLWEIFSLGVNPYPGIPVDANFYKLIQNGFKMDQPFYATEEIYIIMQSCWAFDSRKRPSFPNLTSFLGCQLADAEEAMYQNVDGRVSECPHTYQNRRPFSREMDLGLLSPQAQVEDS
The test is described as follows: ADP Glo kinase assay, FLT3(ITD). In kind it is biochemical. Particulars: apparent Ki calculated from Km (ATP) and IC50, read-out: FLT3 inhibition Ki.
Description: (§1) Inhibition of FLT3(WT), FLT3(ITD) and FLT3(D835Y) and CDKs were determined using ADP Glo Kinase assays (Promega Corporation, Madison, WI, USA). […] The kinase reactions are run for an optimised time period (FLT3-WT: 120 min, FLT3-ITD: 80 min, FLT3-D835Y: 100 min) at room temperature and then the reaction was stopped by adding 5 μL of ADP Glo reagent. […] Positive and negative controls were performed in 0.5% DMSO in the presence and absence of each FLT3 kinase, respectively. […] Half-maximal inhibition (IC50) values were calculated using a 4-parameter logistic non-linear regression model with Graphpad prism (Version 6.0). Apparent inhibition constants (Ki) values were calculated from Km (ATP) and IC50 values for the respective kinases.

The subject of test [3] is U937. Nature of the test: Proliferation assay (resazurin/MTT), U937. In kind it is cell-based. Particulars: Homo sapiens, U-937, read-out: 72 h Growth inhibition GI50, U937 cells.
For test [4], the target named is CDK6/D3 (Homo sapiens, UniProt Q00534). Nature of the test: ADP Glo kinase assay, CDK6/D3. In kind it is biochemical. Particulars: CDK6D3; for remaining activity at 1 µM: compound at 1 μM (values marked *), read-out: residual enzymatic activity (%) at 1 μM*; for remaining activity at 10 µM: compound at 10 μM, read-out: residual enzymatic activity (%) at 10 μM.
Chain of CDK6/D3 (Q00534 whole entry, species assumed): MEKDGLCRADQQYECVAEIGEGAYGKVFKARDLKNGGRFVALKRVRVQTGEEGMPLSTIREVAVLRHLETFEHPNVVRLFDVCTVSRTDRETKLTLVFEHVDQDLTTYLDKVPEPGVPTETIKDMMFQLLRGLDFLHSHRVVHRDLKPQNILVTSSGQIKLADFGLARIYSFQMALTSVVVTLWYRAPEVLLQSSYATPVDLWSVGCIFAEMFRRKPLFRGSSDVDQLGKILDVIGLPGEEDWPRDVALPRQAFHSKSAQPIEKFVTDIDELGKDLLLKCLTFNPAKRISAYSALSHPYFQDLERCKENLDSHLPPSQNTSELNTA
Chain of CDK6/D3 (P30281 whole entry partner, species assumed): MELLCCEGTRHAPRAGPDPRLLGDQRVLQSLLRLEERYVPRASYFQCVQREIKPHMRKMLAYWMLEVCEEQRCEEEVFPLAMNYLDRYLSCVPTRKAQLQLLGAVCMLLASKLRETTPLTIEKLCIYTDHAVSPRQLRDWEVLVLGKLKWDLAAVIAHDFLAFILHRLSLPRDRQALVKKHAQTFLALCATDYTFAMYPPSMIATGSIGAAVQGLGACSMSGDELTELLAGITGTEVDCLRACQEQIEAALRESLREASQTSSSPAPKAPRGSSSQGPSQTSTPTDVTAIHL
Description: (§2) Inhibition of FLT3(WT), FLT3(ITD) and FLT3(D835Y) and CDKs were determined using ADP Glo Kinase assays (Promega Corporation, Madison, WI, USA). […] Similarly, kinase reaction for CDK4/D1 and CDK6/D3 was performed with reaction buffer (40 nM Tris base pH 7.5, 20 mM MgCl2, 0.4 mM DTT), 0.1 mg/ml BSA and RB-CTF substrate (retinoblastoma protein1 C-terminal fraction). For CDK9/CyclinT1, the kinase reaction was performed with the standard assay buffer and Kinase Dilution Buffer and RBER-IRStide substrate. Half-maximal inhibition (IC50) values were calculated using a 4-parameter logistic non-linear regression model with Graphpad prism (Version 6.0). Apparent inhibition constants (Ki) values were calculated from Km (ATP) and IC50 values for the respective kinases.
Test [5] deals with CDK1B (Homo sapiens, UniProt P06493).
Chain of CDK1B (P06493 whole entry): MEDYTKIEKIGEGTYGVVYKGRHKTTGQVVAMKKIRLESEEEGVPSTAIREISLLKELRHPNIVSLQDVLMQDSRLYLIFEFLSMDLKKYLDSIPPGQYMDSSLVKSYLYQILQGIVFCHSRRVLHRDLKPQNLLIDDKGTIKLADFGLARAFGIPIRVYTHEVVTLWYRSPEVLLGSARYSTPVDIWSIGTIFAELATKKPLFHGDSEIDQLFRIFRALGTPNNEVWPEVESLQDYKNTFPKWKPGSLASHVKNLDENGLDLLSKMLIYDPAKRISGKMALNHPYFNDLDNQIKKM
Chain of CDK1B (P14635 whole entry partner): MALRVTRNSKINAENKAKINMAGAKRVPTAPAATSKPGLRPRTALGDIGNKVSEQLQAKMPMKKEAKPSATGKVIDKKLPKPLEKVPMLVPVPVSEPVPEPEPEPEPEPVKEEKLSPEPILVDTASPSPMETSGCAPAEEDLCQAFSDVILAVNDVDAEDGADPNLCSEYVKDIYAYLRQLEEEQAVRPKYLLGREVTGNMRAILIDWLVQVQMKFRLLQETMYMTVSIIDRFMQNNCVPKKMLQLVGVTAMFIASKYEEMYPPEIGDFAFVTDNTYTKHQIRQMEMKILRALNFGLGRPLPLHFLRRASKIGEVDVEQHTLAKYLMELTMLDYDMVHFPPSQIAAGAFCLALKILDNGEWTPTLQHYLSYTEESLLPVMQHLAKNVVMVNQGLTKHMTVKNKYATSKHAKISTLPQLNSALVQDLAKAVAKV
Test [6] has as its target T2, FLT3(D835Y) (Homo sapiens, UniProt P36888, D835Y).
T2 sequence (P36888 27-993 D835Y): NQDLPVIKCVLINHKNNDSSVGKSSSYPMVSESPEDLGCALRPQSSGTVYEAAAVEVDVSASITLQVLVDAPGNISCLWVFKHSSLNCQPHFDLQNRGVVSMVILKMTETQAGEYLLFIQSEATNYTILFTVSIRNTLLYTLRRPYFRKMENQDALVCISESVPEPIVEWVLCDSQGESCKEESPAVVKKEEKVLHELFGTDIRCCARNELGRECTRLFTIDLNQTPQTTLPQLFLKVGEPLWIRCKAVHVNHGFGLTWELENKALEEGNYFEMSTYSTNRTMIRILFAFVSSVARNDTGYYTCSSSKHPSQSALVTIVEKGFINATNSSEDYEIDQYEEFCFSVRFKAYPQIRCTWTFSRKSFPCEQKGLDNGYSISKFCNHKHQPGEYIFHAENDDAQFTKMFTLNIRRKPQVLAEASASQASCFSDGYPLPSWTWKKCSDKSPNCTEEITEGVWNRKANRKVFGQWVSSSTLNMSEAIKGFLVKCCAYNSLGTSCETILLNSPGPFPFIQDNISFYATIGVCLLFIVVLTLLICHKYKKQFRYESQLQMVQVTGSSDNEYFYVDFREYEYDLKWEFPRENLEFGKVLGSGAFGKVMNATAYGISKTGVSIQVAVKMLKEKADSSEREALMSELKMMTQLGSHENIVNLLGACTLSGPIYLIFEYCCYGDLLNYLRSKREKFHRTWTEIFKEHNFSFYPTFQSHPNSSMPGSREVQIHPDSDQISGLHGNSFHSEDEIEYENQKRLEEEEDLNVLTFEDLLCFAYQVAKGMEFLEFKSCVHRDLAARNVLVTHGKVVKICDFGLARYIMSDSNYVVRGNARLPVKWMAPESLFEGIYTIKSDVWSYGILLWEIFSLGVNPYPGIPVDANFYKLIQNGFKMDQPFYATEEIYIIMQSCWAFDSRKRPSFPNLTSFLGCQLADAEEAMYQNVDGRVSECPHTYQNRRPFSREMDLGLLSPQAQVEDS
The test is described as follows: ADP Glo kinase assay, FLT3(D835Y). In kind it is biochemical. Particulars: apparent Ki calculated from Km (ATP) and IC50, read-out: FLT3 inhibition Ki.
Description: as §1

Test [7] concerns the target CDK4/D1 (Homo sapiens, UniProt P11802). The test is described as follows: ADP Glo kinase assay, CDK4/D1. Format: biochemical. Conditions: CDK4D1; for remaining activity at 1 µM: compound at 1 μM (values marked *), read-out: residual enzymatic activity (%) at 1 μM*; for remaining activity at 10 µM: compound at 10 μM, read-out: residual enzymatic activity (%) at 10 μM.
Description: as §2
In test [8] the target is CDK9/CyclinT1 (Homo sapiens, UniProt P50750). Nature of the test: ADP Glo kinase assay, CDK9/CyclinT1. Format: biochemical. Particulars: CDK9T1; for Ki: apparent Ki calculated from Km (ATP) and IC50, read-out: CDK inhibition Ki; for remaining activity at 10 µM: compound at 10 μM, read-out: residual enzymatic activity (%) at 10 μM.
Chain of CDK9/CyclinT1 (P50750 whole entry, species assumed): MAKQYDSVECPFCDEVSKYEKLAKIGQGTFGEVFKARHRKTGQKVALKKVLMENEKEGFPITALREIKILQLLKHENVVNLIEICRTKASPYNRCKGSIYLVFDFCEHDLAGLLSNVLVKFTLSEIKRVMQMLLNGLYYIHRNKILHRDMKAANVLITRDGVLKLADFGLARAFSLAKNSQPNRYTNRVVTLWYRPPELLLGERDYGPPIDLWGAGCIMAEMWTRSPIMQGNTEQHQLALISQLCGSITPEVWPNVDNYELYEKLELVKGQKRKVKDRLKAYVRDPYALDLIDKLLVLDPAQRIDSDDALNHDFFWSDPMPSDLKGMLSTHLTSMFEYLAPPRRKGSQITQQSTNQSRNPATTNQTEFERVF
Chain of CDK9/CyclinT1 (O60563 whole entry partner, species assumed): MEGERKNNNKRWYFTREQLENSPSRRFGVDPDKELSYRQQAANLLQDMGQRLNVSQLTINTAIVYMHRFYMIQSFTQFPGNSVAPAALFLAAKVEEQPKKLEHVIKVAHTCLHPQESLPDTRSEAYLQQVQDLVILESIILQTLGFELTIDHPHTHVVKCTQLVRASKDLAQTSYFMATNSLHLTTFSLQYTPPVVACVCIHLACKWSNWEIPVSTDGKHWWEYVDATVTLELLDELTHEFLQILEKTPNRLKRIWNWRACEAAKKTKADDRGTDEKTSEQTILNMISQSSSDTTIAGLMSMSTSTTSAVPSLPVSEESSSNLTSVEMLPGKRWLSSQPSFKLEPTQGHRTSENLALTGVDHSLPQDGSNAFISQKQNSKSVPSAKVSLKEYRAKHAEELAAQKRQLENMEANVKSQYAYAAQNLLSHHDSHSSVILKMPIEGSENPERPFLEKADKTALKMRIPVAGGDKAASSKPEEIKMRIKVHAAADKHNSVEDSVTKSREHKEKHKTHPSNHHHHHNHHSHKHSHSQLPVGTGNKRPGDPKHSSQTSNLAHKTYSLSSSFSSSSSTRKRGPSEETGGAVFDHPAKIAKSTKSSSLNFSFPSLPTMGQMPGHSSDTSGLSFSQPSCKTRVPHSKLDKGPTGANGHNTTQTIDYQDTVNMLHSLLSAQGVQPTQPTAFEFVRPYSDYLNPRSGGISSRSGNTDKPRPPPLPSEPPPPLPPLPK
In test [9] the target is CDK7HMAT1 (Homo sapiens, UniProt P50613).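 Note: kinase activity measured with an ADP-Glo luminescent kinase assay.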
Chain of CDK7HMAT1 (P50613 whole entry): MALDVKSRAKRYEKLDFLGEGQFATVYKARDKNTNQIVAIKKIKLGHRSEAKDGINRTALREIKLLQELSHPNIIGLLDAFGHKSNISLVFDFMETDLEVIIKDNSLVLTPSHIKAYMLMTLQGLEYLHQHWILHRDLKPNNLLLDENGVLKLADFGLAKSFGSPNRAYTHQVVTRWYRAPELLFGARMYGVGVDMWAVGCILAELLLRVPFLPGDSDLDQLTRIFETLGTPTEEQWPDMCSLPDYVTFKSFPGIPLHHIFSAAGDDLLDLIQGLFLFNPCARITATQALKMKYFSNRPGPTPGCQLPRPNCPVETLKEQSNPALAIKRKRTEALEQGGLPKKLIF
Chain of CDK7HMAT1 (P51946 whole entry partner): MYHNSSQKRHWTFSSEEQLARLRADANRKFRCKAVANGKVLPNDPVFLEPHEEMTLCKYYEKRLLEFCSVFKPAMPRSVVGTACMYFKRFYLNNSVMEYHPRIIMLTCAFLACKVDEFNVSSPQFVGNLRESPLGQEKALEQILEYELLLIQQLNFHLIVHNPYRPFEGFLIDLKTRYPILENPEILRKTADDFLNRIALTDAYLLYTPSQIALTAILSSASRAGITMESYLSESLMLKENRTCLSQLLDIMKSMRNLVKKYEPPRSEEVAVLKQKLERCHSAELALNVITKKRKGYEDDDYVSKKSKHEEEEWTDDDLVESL
Chain of CDK7HMAT1 (P51948 whole entry partner): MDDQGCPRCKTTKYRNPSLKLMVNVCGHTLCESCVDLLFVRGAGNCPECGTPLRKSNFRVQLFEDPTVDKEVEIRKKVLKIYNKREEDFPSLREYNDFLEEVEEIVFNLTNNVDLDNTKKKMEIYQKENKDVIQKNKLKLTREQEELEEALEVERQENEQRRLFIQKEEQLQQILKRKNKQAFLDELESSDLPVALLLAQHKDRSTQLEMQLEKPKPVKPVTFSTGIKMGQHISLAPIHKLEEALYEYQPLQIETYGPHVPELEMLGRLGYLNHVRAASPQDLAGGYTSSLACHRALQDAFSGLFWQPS
Description: as §1
For test [10], the system named is MV-4-11. Nature of the test: Proliferation assay (resazurin/MTT), MV-4-11. Format: cell-based. Particulars: Homo sapiens, MV4-11, read-out: 72 h Growth inhibition GI50, MV-4-11 cells.
For test [11], the target named is T3, FLT3(WT) (Homo sapiens, UniProt P36888).
T3 sequence (P36888 27-993): T2 sequence (P36888 27-993 D835Y) with Y809D
Nature of the test: ADP Glo kinase assay, FLT3(WT). In kind it is biochemical. Particulars: for Ki: apparent Ki calculated from Km (ATP) and IC50, read-out: FLT3 inhibition Ki; for remaining activity at 1 µM: compound at 1 μM, read-out: residual enzymatic activity (%) at 1 μM.

Chain of CDK4/D1 (P11802 whole entry, species assumed): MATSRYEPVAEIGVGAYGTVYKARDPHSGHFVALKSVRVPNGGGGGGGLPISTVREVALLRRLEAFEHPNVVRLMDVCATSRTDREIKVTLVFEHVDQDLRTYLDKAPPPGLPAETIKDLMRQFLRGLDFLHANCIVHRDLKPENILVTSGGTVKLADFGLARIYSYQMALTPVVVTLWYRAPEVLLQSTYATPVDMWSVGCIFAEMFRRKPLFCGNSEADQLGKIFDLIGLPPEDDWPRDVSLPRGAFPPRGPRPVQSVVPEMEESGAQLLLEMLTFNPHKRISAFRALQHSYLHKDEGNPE
Chain of CDK4/D1 (P24385 whole entry partner, species assumed): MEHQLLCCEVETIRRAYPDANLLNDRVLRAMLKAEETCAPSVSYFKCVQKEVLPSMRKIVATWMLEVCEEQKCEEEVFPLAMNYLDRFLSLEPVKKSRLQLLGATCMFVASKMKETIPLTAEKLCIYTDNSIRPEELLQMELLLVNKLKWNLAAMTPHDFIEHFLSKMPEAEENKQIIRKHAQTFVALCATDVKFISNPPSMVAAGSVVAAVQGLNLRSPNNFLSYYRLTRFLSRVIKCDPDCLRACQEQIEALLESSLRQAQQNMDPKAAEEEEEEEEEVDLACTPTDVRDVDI

As for `CC(=O)N1CCN(c2ccc(Nc3nccc(-c4cnc5ccc(I)cn45)n3)nc2)CC1` [Cmpd 43, 1-(4-(6-((4-(6-Iodoimidazo[1,2-a]pyridin-3-yl)pyrimidin-2-yl)amino)pyridin-3-yl)piperazin-1-yl)ethan-1-one], the values for the activity in test [1], in test [5] (1 µM) and in [9] (1 µM) were 75%, 92% and 75%, respectively. Further, the Ki was 0.044 µM in [2], 0.018 µM in test [6], 0.475 µM in [8] and 0.038 µM in test [11]. Further, the concentration for 50% growth inhibition (GI50) was found to be 3.57 µM in test [3] and 0.006 µM in test [10]. The remaining activity at 1 µM in [4] and in [7] was 70% in each case.
In the case of `c1ccn2c(-c3ccnc(Nc4ccc(N5CCCCC5)cn4)n3)cnc2c1` [Cmpd 5, 4-(Imidazo[1,2-a]pyridin-3-yl)-N-(5-(piperidin-1-yl)pyridin-2-yl)pyrimidin-2-amine], the results for the activity in test [1], in test [5] (10 µM) and in test [9] (10 µM) were 81%, 48% and 84%, respectively. Also, the Ki in test [2] is 0.063 µM; in test [6], 0.045 µM. For the same compound, the GI50 turned out to be 6.2 µM in test [3] and 0.075 µM in test [10]. Moreover, the remaining activity at 10 µM was 23% in [4], 53% in test [7] and 28% in test [8]. For the same compound, in test [11], the remaining activity at 1 µM stood at 45%.
Consider `CC(=O)N1CCN(c2ccc(Nc3nccc(-c4cnc5ccc(-c6cncnc6)cn45)n3)nc2)CC1` [Cmpd 16, 1-(4-(6-((4-(6-(Pyrimidin-5-yl)imidazo[1,2-a]pyridin-3-yl)pyrimidin-2-yl)amino)pyridin-3-yl)piperazin-1-yl)ethan-1-one], for which the activity in test [1] came to 90%; in test [5] (10 µM), 81%; in [9] (10 µM) it was 60%. Also, the Ki was 0.426 µM in test [2] and 0.048 µM in test [6]. Moreover, the GI50 in [3] stood at 2.92 µM; in test [10], 0.018 µM. In addition, the remaining activity at 10 µM worked out at 99% in test [4] and 78% in test [7]. Moreover, the remaining activity at 1 µM in [11] came to 23%.
As for `Brc1ccc(Nc2nccc(-c3cnc4ccccn34)n2)nc1` [Cmpd 47, N-(5-Bromopyridin-2-yl)-4-(imidazo[1,2-a]pyridin-3-yl)pyrimidin-2-amine], the activity in test [1] was found to be 103%; in test [5] (1 µM), 79%. Further, the Ki is 0.489 µM in [2], above 0.5 µM in [6] and above 0.5 µM in test [11]. Further, the GI50 amounted to 0.645 µM in test [3] and 0.545 µM in [10]. The remaining activity at 1 µM in test [4] was 85%; in test [7], 72%. The remaining activity at 10 µM in test [8] came to 62%.
Turning to `CN1CCN(c2ccc(Nc3nccc(-c4cnc5ccc(Br)cn45)n3)nc2)CC1` [Cmpd 45, 4-(6-Bromoimidazo[1,2-a]pyridin-3-yl)-N-(5-(4-methylpiperazin-1-yl)pyridin-2-yl)pyrimidin-2-amine], the values for the activity in [1] and in [5] (1 µM) were 49% and 71%, respectively. Moreover, the Ki in [2] is 0.015 µM; in [6], 0.013 µM; in test [8], 0.111 µM; in test [11] it was 0.025 µM. In addition, the GI50 in test [3] is 1.96 µM; in test [10] it was 0.023 µM. Also, the remaining activity at 1 µM in test [4] is 46%; in test [7], 34%.
As for `Ic1ccc(Nc2nccc(-c3cnc4ccccn34)n2)nc1` [Cmpd 53, 4-(Imidazo[1,2-a]pyridin-3-yl)-N-(5-iodopyridin-2-yl)pyrimidin-2-amine], in [1], the activity turned out to be 99%. Also, the Ki in test [2], in test [6] and in [11] was above 0.5 µM in each case. Besides, the results for the GI50 in test [3] and in test [10] were 2.5 µM and 0.382 µM, respectively.
As to `Clc1ccc(Nc2nccc(-c3cnc4ccccn34)n2)nc1` [Cmpd 52, N-(5-Chloropyridin-2-yl)-4-(imidazo[1,2-a]pyridin-3-yl)pyrimidin-2-amine], the activity in [1] was 52%. Also, the Ki in test [2] was 0.421 µM; in test [6], 0.584 µM; in test [11], above 0.5 µM. For the same compound, the GI50 was determined as 0.691 µM in test [3] and 0.213 µM in [10].
